Starred links: 1 amine or outer side, 2 acyl side, 3 side chain; linkers in the order of their positions; H or OH if unused. Non-standard residues stand in square brackets, D forms with d. Residues, ends and D or L forms follow the SMILES beside them. *: point of attachment. X4 = Cc1cc(F)cc(-c2cnc(NCCNC(=O)CCOCCOCCOCCOCCC(=O)*)c(-c3nc4ccc(Cl)cc4[nH]3)c2N2CCC(N)CC2)c1; X1 = Cc1cc(F)cc(-c2cnc(NCCNC(=O)CCOCCC(=O)*)c(-c3nc4ccc(Cl)cc4[nH]3)c2N2CCC(N)CC2)c1; Dolaproine = CO[C@@H]([C@@H]1CCCN1)[C@@H](C)C(=O)O; Dil = CC[C@H](C)[C@H](NC)[C@@H](CC(=O)O)OC; PABC = O=C(OCc1ccc(N[*:1])cc1)[*:2]; X2 = C[C@@H](N*)[C@@H](O)c1ccccc1; Cya = N[C@@H](CS(=O)(=O)O)C(=O)O; Cit = NC(=O)NCCC[C@H](N)C(=O)O; NMeV = CN[C@H](C(=O)O)C(C)C
Legend:
Format in all cases: cell-based
[1] = test system: NCI-H524 (ATCC) human small cell lung cancer cells; details: 2 h
How it was run: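 CellTiter-Glo luminescence after a 2 h SMDC pulse (top dose 1 uM, 2-fold dilutions, 11 points), medium wash, then 70 h recovery. Cells were seeded at 5,000/well and dosed 24 h later. % inhibition vs control gave IC50 via four-parameter fit.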

[2] = biological target: T1, human somatostatin receptor subtype 2 (Homo sapiens, UniProt P30874); experiment: Functional cAMP assay for SSTR2 agonists (HTRF) in CHO-K1 cells; details: CHO-K1 cells stably expressing human SST2, 20 min; read-out: hSST2 cAMP Avg EC50
T1 construct: expressed in transfected cells
T1 sequence (P30874 whole entry): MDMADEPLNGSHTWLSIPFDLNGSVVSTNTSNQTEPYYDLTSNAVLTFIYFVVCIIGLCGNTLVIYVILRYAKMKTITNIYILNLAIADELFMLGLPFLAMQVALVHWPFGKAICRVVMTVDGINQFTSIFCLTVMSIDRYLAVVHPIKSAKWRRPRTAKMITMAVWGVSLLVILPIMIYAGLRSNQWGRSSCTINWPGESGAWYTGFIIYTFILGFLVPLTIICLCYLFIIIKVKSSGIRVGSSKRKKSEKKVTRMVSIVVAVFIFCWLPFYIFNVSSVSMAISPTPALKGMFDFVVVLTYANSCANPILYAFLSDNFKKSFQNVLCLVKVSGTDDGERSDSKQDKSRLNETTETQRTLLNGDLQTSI
How it was run: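 Agonism scored as loss of NKH477 (1.6 μM)-driven cAMP, with IBMX present, after 20 min, 37° C. exposure of stably transfected CHO-K1 cells to compound dilutions (typically 0-10,000 nM). Lysates read by time-resolved FRET; cAMP interpolated from standard curve and EC50 derived.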

[3] = biological target: T2, SST2 (Homo sapiens, UniProt P30874); experiment: PathHunter CHO-K1 SST2 internalization assay; details: PathHunter CHO-K1 SST2, 90 min; read-out: Internalization EC50
T2 construct: host or cells: PathHunter CHO-K1 SST2 cells
T2 sequence (P30874 whole entry): as above
How it was run: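 IC50 comes from four-parameter curves on background-corrected duplicates of Beta-Glo luminescence, read after 60 min at room temperature in the dark. Before that, CHO-K1 SST2 internalization cells (48 h post-seeding) received SMDC as eleven threefold dilutions, 10 uM highest final, for 90 min at 37 C.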

SMILES | EC50 [1] [nM] | EC50 [2] [nM] | EC50 [3] [nM]
CC[C@H](C)[C@@H]([C@@H](CC(=O)N1CCC[C@H]1[C@H](OC)[C@@H](C)C(=O)N[C@H](C)[C@@H](O)c1ccccc1)OC)N(C)C(=O)[C@@H](NC(=O)[C@H](C(C)C)N(C)C(=O)OCc1ccc(NC(=O)[C@H](CCCNC(N)=O)NC(=O)[C@@H](NC(=O)[C@H](CS(=O)(=O)O)NC(=O)[C@H](CCC(=O)O)NC(=O)CCOCCC(=O)NCCNc2ncc(-c3cc(C)cc(F)c3)c(N3CCC(N)CC3)c2-c2nc3ccc(Cl)cc3[nH]2)C(C)C)cc1)C(C)C [Compound 105] (X1-E[Cya]V[Cit][PABC][NMeV]V[Dil][Dolaproine]-X2) | 290 | 0.18 | 14
CC[C@H](C)[C@@H]([C@@H](CC(=O)N1CCC[C@H]1[C@H](OC)[C@@H](C)C(=O)N[C@H](C)[C@@H](O)c1ccccc1)OC)N(C)C(=O)[C@@H](NC(=O)[C@H](C(C)C)N(C)C(=O)OCc1ccc(NC(=O)[C@H](CCCNC(N)=O)NC(=O)[C@@H](NC(=O)[C@H](CS(=O)(=O)O)NC(=O)[C@@H](CCC(=O)O)NC(=O)CCOCCC(=O)NCCNc2ncc(-c3cc(C)cc(F)c3)c(N3CCC(N)CC3)c2-c2nc3ccc(Cl)cc3[nH]2)C(C)C)cc1)C(C)C [Compound 106] (X1-[dE][Cya]V[Cit][PABC][NMeV]V[Dil][Dolaproine]-X2) | 460 | 0.25 | 16
CC[C@H](C)[C@@H]([C@@H](CC(=O)N1CCC[C@H]1[C@H](OC)[C@@H](C)C(=O)N[C@H](C)[C@@H](O)c1ccccc1)OC)N(C)C(=O)[C@@H](NC(=O)[C@H](C(C)C)N(C)C(=O)OCc1ccc(NC(=O)[C@H](CCCNC(N)=O)NC(=O)[C@@H](NC(=O)[C@H](CC(=O)O)NC(=O)[C@H](CC(=O)O)NC(=O)[C@H](CC(=O)O)NC(=O)CCOCCC(=O)NCCNc2ncc(-c3cc(C)cc(F)c3)c(N3CCC(N)CC3)c2-c2nc3ccc(Cl)cc3[nH]2)C(C)C)cc1)C(C)C [Compound 108] (X1-DDDV[Cit][PABC][NMeV]V[Dil][Dolaproine]-X2) | 3300 | 1.9 | 53
CC[C@H](C)[C@@H]([C@@H](CC(=O)N1CCC[C@H]1[C@H](OC)[C@@H](C)C(=O)N[C@H](C)[C@@H](O)c1ccccc1)OC)N(C)C(=O)[C@@H](NC(=O)[C@H](C(C)C)N(C)C(=O)OCc1ccc(NC(=O)[C@H](CCCNC(N)=O)NC(=O)[C@@H](NC(=O)[C@@H](CC(=O)O)NC(=O)[C@@H](CC(=O)O)NC(=O)[C@@H](CC(=O)O)NC(=O)CCOCCC(=O)NCCNc2ncc(-c3cc(C)cc(F)c3)c(N3CCC(N)CC3)c2-c2nc3ccc(Cl)cc3[nH]2)C(C)C)cc1)C(C)C [Compound 109] (X1-[dD][dD][dD]V[Cit][PABC][NMeV]V[Dil][Dolaproine]-X2) | 2500 | 0.7 | 11
CC[C@H](C)[C@@H]([C@@H](CC(=O)N1CCC[C@H]1[C@H](OC)[C@@H](C)C(=O)N[C@H](C)[C@@H](O)c1ccccc1)OC)N(C)C(=O)[C@@H](NC(=O)[C@H](C(C)C)N(C)C(=O)OCc1ccc(NC(=O)[C@H](CCCNC(N)=O)NC(=O)[C@@H](NC(=O)[C@H](CCC(=O)O)NC(=O)[C@H](CCC(=O)O)NC(=O)CCOCCOCCOCCOCCC(=O)NCCNc2ncc(-c3cc(C)cc(F)c3)c(N3CCC(N)CC3)c2-c2nc3ccc(Cl)cc3[nH]2)C(C)C)cc1)C(C)C [Compound 110] (X4-EEV[Cit][PABC][NMeV]V[Dil][Dolaproine]-X2) | 110 | 0.57 | 13
CC[C@H](C)[C@@H]([C@@H](CC(=O)N1CCC[C@H]1[C@H](OC)[C@@H](C)C(=O)N[C@H](C)[C@@H](O)c1ccccc1)OC)N(C)C(=O)[C@@H](NC(=O)[C@H](C(C)C)N(C)C(=O)OCc1ccc(NC(=O)[C@H](CCCNC(N)=O)NC(=O)[C@@H](NC(=O)CNC(=O)[C@H](CCC(=O)O)NC(=O)[C@H](CCC(=O)O)NC(=O)CCOCCC(=O)NCCNc2ncc(-c3cc(C)cc(F)c3)c(N3CCC(N)CC3)c2-c2nc3ccc(Cl)cc3[nH]2)C(C)C)cc1)C(C)C [Compound 111] (X1-EEGV[Cit][PABC][NMeV]V[Dil][Dolaproine]-X2) | 360 | 1.2 | 22
CC[C@H](C)[C@@H]([C@@H](CC(=O)N1CCC[C@H]1[C@H](OC)[C@@H](C)C(=O)N[C@H](C)[C@@H](O)c1ccccc1)OC)N(C)C(=O)[C@@H](NC(=O)[C@H](C(C)C)N(C)C(=O)OCc1ccc(NC(=O)[C@H](CCCNC(N)=O)NC(=O)[C@@H](NC(=O)[C@H](CCC(N)=O)NC(=O)CCOCCC(=O)NCCNc2ncc(-c3cc(C)cc(F)c3)c(N3CCC(N)CC3)c2-c2nc3ccc(Cl)cc3[nH]2)C(C)C)cc1C(N)=O)C(C)C [Compound 112] | 10 | 0.16 | 2.9
CC[C@H](C)[C@@H]([C@@H](CC(=O)N1CCC[C@H]1[C@H](OC)[C@@H](C)C(=O)N[C@H](C)[C@@H](O)c1ccccc1)OC)N(C)C(=O)[C@@H](NC(=O)[C@H](C(C)C)N(C)C(=O)OCc1ccc(NC(=O)[C@H](CCCNC(N)=O)NC(=O)[C@@H](NC(=O)[C@H](CCC(=O)O)NC(=O)[C@H](CS(=O)(=O)O)NC(=O)CCOCCC(=O)NCCNc2ncc(-c3cc(C)cc(F)c3)c(N3CCC(N)CC3)c2-c2nc3ccc(Cl)cc3[nH]2)C(C)C)cc1)C(C)C [Compound 113] (X1-[Cya]EV[Cit][PABC][NMeV]V[Dil][Dolaproine]-X2) | 200 | 0.33 | 30
CC[C@H](C)[C@@H]([C@@H](CC(=O)N1CCC[C@H]1[C@H](OC)[C@@H](C)C(=O)N[C@H](C)[C@@H](O)c1ccccc1)OC)N(C)C(=O)[C@@H](NC(=O)[C@H](C(C)C)N(C)C(=O)OCc1ccc(NC(=O)[C@H](CCCNC(N)=O)NC(=O)[C@@H](NC(=O)[C@H](CS(=O)(=O)O)NC(=O)[C@H](CCC(=O)O)NC(=O)CCOCCOCCOCCOCCC(=O)NCCNc2ncc(-c3cc(C)cc(F)c3)c(N3CCC(N)CC3)c2-c2nc3ccc(Cl)cc3[nH]2)C(C)C)cc1)C(C)C [Compound 114] (X4-E[Cya]V[Cit][PABC][NMeV]V[Dil][Dolaproine]-X2) | 100 | 0.22 | 10
CC[C@H](C)[C@@H]([C@@H](CC(=O)N1CCC[C@H]1[C@H](OC)[C@@H](C)C(=O)N[C@H](C)[C@@H](O)c1ccccc1)OC)N(C)C(=O)[C@@H](NC(=O)[C@H](C(C)C)N(C)C(=O)OCc1ccc(NC(=O)[C@H](C)NC(=O)[C@@H](NC(=O)[C@H](CCC(=O)O)NC(=O)CCOCCC(=O)NCCNc2ncc(-c3cc(C)cc(F)c3)c(N3CCC(N)CC3)c2-c2nc3ccc(Cl)cc3[nH]2)C(C)C)cc1C(=O)NCCN)C(C)C [Compound 116] | 6.6 | 0.1 | 3.9
CC[C@H](C)[C@@H]([C@@H](CC(=O)N1CCC[C@H]1[C@H](OC)[C@@H](C)C(=O)N[C@H](C)[C@@H](O)c1ccccc1)OC)N(C)C(=O)[C@@H](NC(=O)[C@H](C(C)C)N(C)C(=O)OCc1ccc(NC(=O)[C@H](C)NC(=O)[C@@H](NC(=O)[C@H](CS(=O)(=O)O)NC(=O)CCOCCC(=O)NCCNc2ncc(-c3cc(C)cc(F)c3)c(N3CCC(N)CC3)c2-c2nc3ccc(Cl)cc3[nH]2)C(C)C)cc1C(=O)NCCN)C(C)C [Compound 117] | 3.7 | 0.081 | 2.6
CC[C@H](C)[C@@H]([C@@H](CC(=O)N1CCC[C@H]1[C@H](OC)[C@@H](C)C(=O)N[C@H](C)[C@@H](O)c1ccccc1)OC)N(C)C(=O)[C@@H](NC(=O)[C@H](C(C)C)N(C)C(=O)OCc1ccc(NC(=O)[C@H](C)NC(=O)[C@@H](NC(=O)[C@H](CCC(N)=O)NC(=O)CCOCCC(=O)NCCNc2ncc(-c3cc(C)cc(F)c3)c(N3CCC(N)CC3)c2-c2nc3ccc(Cl)cc3[nH]2)C(C)C)cc1C(=O)NCCN)C(C)C [Compound 118] | 0.65 | 0.068 | 3.8
CC[C@H](C)[C@@H]([C@@H](CC(=O)N1CCC[C@H]1[C@H](OC)[C@@H](C)C(=O)N[C@H](C)[C@@H](O)c1ccccc1)OC)N(C)C(=O)[C@@H](NC(=O)[C@H](C(C)C)N(C)C(=O)OCc1ccc(NC(=O)[C@H](CCCNC(N)=O)NC(=O)[C@@H](NC(=O)[C@H](CCC(N)=O)NC(=O)[C@H](CCC(=O)O)NC(=O)CCOCCOCCOCCOCCC(=O)NCCNc2ncc(-c3cc(C)cc(F)c3)c(N3CCC(N)CC3)c2-c2nc3ccc(Cl)cc3[nH]2)C(C)C)cc1)C(C)C [Compound 119] (X4-EQV[Cit][PABC][NMeV]V[Dil][Dolaproine]-X2) | 16 | 0.14 | 5.4
CC[C@H](C)[C@@H]([C@@H](CC(=O)N1CCC[C@H]1[C@H](OC)[C@@H](C)C(=O)N[C@H](C)[C@@H](O)c1ccccc1)OC)N(C)C(=O)[C@@H](NC(=O)[C@H](C(C)C)N(C)C(=O)OCc1ccc(NC(=O)[C@H](C)NC(=O)[C@@H](NC(=O)[C@H](CCC(=O)O)NC(=O)CCCCCC(=O)NCCNc2ncc(-c3cc(C)cc(F)c3)c(N3CCC(N)CC3)c2-c2nc3ccc(Cl)cc3[nH]2)C(C)C)cc1C(=O)NCCN)C(C)C [Compound 120] | 2.4 | 0.19 | 2.7
CC[C@H](C)[C@@H]([C@@H](CC(=O)N1CCC[C@H]1[C@H](OC)[C@@H](C)C(=O)N[C@H](C)[C@@H](O)c1ccccc1)OC)N(C)C(=O)[C@@H](NC(=O)[C@H](C(C)C)N(C)C(=O)OCc1ccc(NC(=O)[C@H](C)NC(=O)[C@@H](NC(=O)[C@H](CCC(N)=O)NC(=O)CCCCCC(=O)NCCNc2ncc(-c3cc(C)cc(F)c3)c(N3CCC(N)CC3)c2-c2nc3ccc(Cl)cc3[nH]2)C(C)C)cc1C(=O)NCCN)C(C)C [Compound 121] | 0.62 | 0.45 | 3

Reference: patent US12134610B2, “Somatostatin subtype-2 receptor (SST2R) targeted therapeutics and uses thereof” (priority 2022, dated 2024)
